Experimental findings from US9980943B2, “Methods of treating muscular dystrophy” (BOARD OF REGENTS OF THE NEVADA SYSTEM OF HIGHER EDUCATION, …, priority 2013, dated 2018) are described below.

Assay type in all cases: cell-based, mouse
The test system of assay [1] is α7 integrin (LacZ reporter in α7βgal+/− myoblasts). The assay is described as follows: Myoblast α7+/LacZ integrin FDG assay (Burkin assay in myoblasts, 96-well). As to conditions: α7+/LacZ myoblasts, 96-well.
For assay [2], the system named is α7 integrin (LacZ reporter in α7+/LacZ myotubes). Briefly: Myotube α7 integrin FDG assay (Burkin assay in myotubes, 96-well). Particulars: myotubes.
The subject of assay [3] is β-galactosidase in CMV-LacZ C2C12 myoblasts. The assay is described as follows: CMV-LacZ secondary screen in C2C12 myoblasts (β-Gal stabilizing assay). As to conditions: CMV-LacZ C2C12 myoblasts. An excerpt:
In order to determine compounds that acted to stabilize β-gal in myogenic cells, a CMV-LacZ C2C12 cell line was used in a secondary screen. The EGFP gene from the pEGFP (Clontech) vector was replaced by LACZ PCR product with digests of the vector/PCR product performed using EcoRI (NEB) and NotI (NEB) and ligated using T4 DNA Ligase (NEB) following standard procedures to produce the CMV-LACZ vector. The LACZ gene was generated by PCR from the pBK-RSV (Stratagene) vector using primers LACZ EcoRI F- and LACZ NotI R-. The CMV-LACZ vector was then digested with AfIII (NEB) to linearize the construct, which was then transfected in C2C12 myoblasts using Lipofectamine 2000 (Invitrogen) following the manufacturer's instructions. […] Clonal lines were selected and screened for βgal levels using the myoblast FDG assay.
The assays were used the original 96-well format and new dose-response curves for myoblasts (N=3-6 replicates for each data point), myotubes (N=3-6 replicates for data point), and CMV-LacZ secondary assay (N=2 replicates for each data point) using concentrations of 0.5 μM, 1 μM, 5 μM, 10 μM, 20 μM, and 40 μM (Tables 9-16).

Assay [4] deals with β-galactosidase in CMV-LacZ C2C12 myotubes. Briefly: CMV-LacZ secondary screen in C2C12 myotubes (β-Gal stabilizing assay). Particulars: C2C12 CMV-LacZ myotubes, fold relative to DMSO. In a few lines:
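A secondary screen identifies compounds that stabilize β-gal independently of the native promoter, using CMV-LacZ C2C12 cells. Curves span 0.5–40 μM at six levels, in duplicate.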

Structures are written as SMILES.

On to `Cc1ccc2c(c1)/C(=C/c1ccco1)C(=O)N2` [MLS000682750-01], for which the “Burkin Assay in Myoblasts, signal relative to DMSO” value in assay [1] (0.5 uM) is given as 1.203; in assay [1] (1 uM), 1.02; in assay [1] (5 uM) it was 1.229; in assay [1] (10 uM), 1.076; in assay [1] (20 uM), 1.124; in assay [1] (40 uM), 1.103. Besides, the “Burkin Assay in Myotubes, α7 integrin LacZ reporter signal relative to DMSO” value turned out to be 0.9957 in assay [2] (0.5 uM); 0.9939 in assay [2] (1 uM); 1.073 in assay [2] (5 uM); 0.8839 in assay [2] (10 uM); 1.002 in assay [2] (20 uM); 0.7064 in assay [2] (40 uM). In addition, the “CMV-LACZ in Myoblasts (β-galactosidase activity relative to DMSO)” value in assay [3] (0.5 uM) was 0.9679; in assay [3] (1 uM), 1.0467; in assay [3] (5 uM) it was 0.8717; in assay [3] (10 uM), 0.9934; in assay [3] (20 uM) it was 1.1433; in assay [3] (40 uM), 1.0404. In addition, the “CMV-LACZ in Myotubes, signal relative to DMSO” value stood at 1.0248 in assay [4] (0.5 uM); 0.9638 in assay [4] (1 uM); 1.1285 in assay [4] (5 uM); 1.0939 in assay [4] (10 uM); 1.1189 in assay [4] (20 uM); 1.0579 in assay [4] (40 uM).
Take `O=S(=O)(NC(=NC1CCCCC1)c1ccccc1F)c1ccccc1` [MLS000947910-01]: the “Burkin Assay in Myoblasts, signal relative to DMSO” value worked out at 1.024 in assay [1] (0.5 uM); 1.188 in assay [1] (1 uM); 1.033 in assay [1] (5 uM); 1.0429 in assay [1] (10 uM); 1.047 in assay [1] (20 uM); 1.018 in assay [1] (40 uM). In addition, the “Burkin Assay in Myotubes, α7 integrin LacZ reporter signal relative to DMSO” value in assay [2] (0.5 uM) is given as 1.134; in assay [2] (1 uM), 1.101; in assay [2] (5 uM) it was 1; in assay [2] (10 uM) it was 1.035; in assay [2] (20 uM), 0.9628; in assay [2] (40 uM), 0.9515. For the same compound, the “CMV-LACZ in Myoblasts (β-galactosidase activity relative to DMSO)” value in assay [3] (0.5 uM) turned out to be 1.0094; in assay [3] (1 uM) it was 0.9250; in assay [3] (5 uM) it was 0.9452; in assay [3] (10 uM), 1.0379; in assay [3] (20 uM) it was 1.0870; in assay [3] (40 uM) it was 1.0500. Further, the “CMV-LACZ in Myotubes, signal relative to DMSO” value in assay [4] (0.5 uM) is on record as 1.0333; in assay [4] (1 uM), 0.8348; in assay [4] (5 uM), 1.2332; in assay [4] (10 uM) it was 0.8930; in assay [4] (20 uM), 1.0165; in assay [4] (40 uM) it was 1.0082.
For the compound `Cc1ccccc1-n1c(Cc2cccs2)n[nH]c1=S` [MLS000568234-01], the “Burkin Assay in Myoblasts, signal relative to DMSO” value in assay [1] (0.5 uM) is given as 1.094; in assay [1] (1 uM), 1.032; in assay [1] (5 uM) it was 1.136; in assay [1] (10 uM), 1.373; in assay [1] (20 uM), 1.106; in assay [1] (40 uM), 1.011. In addition, the “Burkin Assay in Myotubes, α7 integrin LacZ reporter signal relative to DMSO” value is 1.08 in assay [2] (0.5 uM); 1.167 in assay [2] (1 uM); 0.9642 in assay [2] (5 uM); 1.09 in assay [2] (10 uM); 0.8694 in assay [2] (20 uM); 0.9705 in assay [2] (40 uM). Also, the “CMV-LACZ in Myoblasts (β-galactosidase activity relative to DMSO)” value in assay [3] (0.5 uM) was found to be 0.9556; in assay [3] (1 uM), 0.9372; in assay [3] (5 uM) it was 0.9043; in assay [3] (10 uM), 0.9894; in assay [3] (20 uM) it was 0.8819; in assay [3] (40 uM), 0.7322. Further, the “CMV-LACZ in Myotubes, signal relative to DMSO” value came out at 1.3844 in assay [4] (0.5 uM); 1.2622 in assay [4] (1 uM); 1.0764 in assay [4] (5 uM); 0.9074 in assay [4] (10 uM); 0.9918 in assay [4] (20 uM); 0.9141 in assay [4] (40 uM).
Regarding `COc1ccccc1C(=O)Nc1ccnn1C1CCN(C(=O)c2ccoc2)CC1` [MLS001083082-01], the “Burkin Assay in Myoblasts, signal relative to DMSO” value was found to be 0.9036 in assay [1] (0.5 uM); 0.9516 in assay [1] (1 uM); 1.058 in assay [1] (5 uM); 1.023 in assay [1] (10 uM); 1.014 in assay [1] (20 uM); 0.9468 in assay [1] (40 uM). Also, the “Burkin Assay in Myotubes, α7 integrin LacZ reporter signal relative to DMSO” value is listed as 1.035 in assay [2] (0.5 uM); 0.9411 in assay [2] (1 uM); 1.07 in assay [2] (5 uM); 1.05 in assay [2] (10 uM); 0.8987 in assay [2] (20 uM); 0.937 in assay [2] (40 uM). The “CMV-LACZ in Myoblasts (β-galactosidase activity relative to DMSO)” value was 0.8591 in assay [3] (0.5 uM); 0.9234 in assay [3] (1 uM); 1.0409 in assay [3] (5 uM); 1.1713 in assay [3] (10 uM); 0.9615 in assay [3] (20 uM); 0.8144 in assay [3] (40 uM). Besides, the “CMV-LACZ in Myotubes, signal relative to DMSO” value in assay [4] (0.5 uM) is on record as 0.9615; in assay [4] (1 uM), 1.0326; in assay [4] (5 uM) it was 0.9984; in assay [4] (10 uM) it was 0.9776; in assay [4] (20 uM), 1.0282; in assay [4] (40 uM), 1.1165.
